Data reported in patent US20150011751A1, “NOVEL TRIAZINE DERIVATIVE” (CARNA BIOSCIENCES, INC., priority 2012, published 2015).

Molecular target: Dephosphorylated BTK (Homo sapiens, UniProt Q06187)
Assay: Test of activity inhibition against dephosphorylated BTK (mobility shift assay)
Description: Kinase activity was measured by a mobility shift assay (MSA) method using QuickScout Screening Assist (trademark) MSA (commercially available kit, manufactured by Carna Biosciences, Inc.). FITC-labeled SRCtide peptide supplied with the kit was used as a substrate of a kinase reaction.
IC50 value was calculated by regression analysis of the inhibition ratio and the test compound concentration (logarithm).
Dephosphorylated BTK was obtained by adding a A protein phosphatase (Code No. P0753S, manufactured by New England BioLabs Inc.) and MnCl2 to a biotinylated BTK protein BTN-BTK (manufactured by Carna Biosciences, Inc.) enzyme solution so as to adjust the concentrations to 10 U/μg and 2 mM, respectively, reacting the mixture at 4° C. overnight, removing the A protein phosphatase through anti-[sequence]-tag antibody agarose gel chromatography, and performing buffer exchange using 10DG Desalting Column.

Dephosphorylated BTK, sequence (Q06187 whole entry): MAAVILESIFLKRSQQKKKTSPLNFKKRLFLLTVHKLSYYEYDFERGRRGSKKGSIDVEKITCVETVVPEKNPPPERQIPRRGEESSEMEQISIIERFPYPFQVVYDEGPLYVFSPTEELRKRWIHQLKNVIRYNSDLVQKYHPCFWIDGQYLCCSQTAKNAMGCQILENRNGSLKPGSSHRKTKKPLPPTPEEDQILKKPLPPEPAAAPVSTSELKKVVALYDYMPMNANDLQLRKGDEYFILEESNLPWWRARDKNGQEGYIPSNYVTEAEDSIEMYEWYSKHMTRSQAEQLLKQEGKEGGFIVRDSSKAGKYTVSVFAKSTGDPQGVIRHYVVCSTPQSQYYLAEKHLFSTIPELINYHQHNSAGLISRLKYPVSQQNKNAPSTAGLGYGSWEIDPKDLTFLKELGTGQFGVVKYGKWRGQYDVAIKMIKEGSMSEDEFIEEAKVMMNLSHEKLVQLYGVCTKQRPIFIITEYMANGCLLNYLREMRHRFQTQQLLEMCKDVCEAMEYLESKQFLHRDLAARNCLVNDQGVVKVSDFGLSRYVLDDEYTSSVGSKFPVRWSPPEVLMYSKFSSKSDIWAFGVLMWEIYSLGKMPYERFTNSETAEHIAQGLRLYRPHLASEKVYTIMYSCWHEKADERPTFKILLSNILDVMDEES

SMILES | IC50 [nM]
Cc1c(NC(=O)c2ccc(C(C)(C)C)cc2)cccc1-c1nc(N)nc(Nc2ccc(N3CCCOCC3)cc2)n1 [Example 86, N-[3-(4-{[4-(1,4-Oxaze-pan-4-yl)phenyl]amino}-6-amino-1,3,5-tria-zin-2-yl)-2-methyl-phenyl]-4-(tert-butyl)benzamide] | 4
Cc1c(NC(=O)c2ccc(C(C)(C)C)cc2)cccc1-c1nc(N)nc(Nc2ccc(N3CCC(O)CC3)cc2)n1 [Example 87, N-[3-(4-Amino-6-{[4-(4-hydroxypiperidin-1-yl)phenyl]amino}-1,3,5-triazin-2-yl)-2-meth-ylphenyl]-4-(tert-butyl)benzamide] | 1.4
Cc1c(NC(=O)c2ccc(C(C)(C)C)cc2)cccc1-c1nc(N)nc(Nc2ccc(N3CCNCC3)cc2)n1 [Example 88, N-[3-(4-Amino-6-{[4-(piperazin-1-yl)phenyl]amino}-1,3,5-triazin-2-yl)-2-methylphenyl]-4-(tert-butyl)benza-mide] | 1.8
COc1cc(Nc2nc(N)nc(-c3cccc(NC(=O)c4ccc(C(C)(C)C)cc4)c3CO)n2)cc(OC)c1OC [Example 91, N-(3-{4-Amino-6-[(3,4,5-trimethoxyphenyl)ami-no]-1,3,5-triazin-2-yl}-2-(hydroxymethyl)phenyl)-4-(tert-butyl) benzamide] | 1.1
Cc1c(NC(=O)c2ccc(C(C)(C)C)cc2)cccc1-c1nc(N)nc(Nc2ccc(N3CCN(CCO)CC3)cc2)n1 [Example 93, N-{3-[4-Amino-6-({4-[4-(2-hydroxyethyl)piperazin-1-yl]phenyl}ami-no)-1,3,5-triazin-2-yl]-2-methylphenyl}-4-(tert-butyl)benzamide] | 1.3
COc1c(NC(=O)c2ccc(C(C)(C)C)cc2)cccc1-c1nc(N)nc(Nc2ccc(N3CCOCC3)cc2)n1 [Example 96, N-(3-{4-Amino-6-[(4-morpholinophenyl)amino]-1,3,5-triazin-2-yl}-2-methoxyphenyl)-4-(tert-butyl)benzamide] | 7.7
CC(C)(C)c1ccc(C(=O)Nc2cccc(-c3nc(N)nc(Nc4ccc(N5CCOCC5)cn4)n3)c2CO)cc1 [Example 99, N-(3-{4-Amino-6-[(5-morpholinopyridin-2-yl)amino]-1,3,5-triazin-2-yl}-2-(hydroxymeth-yl)phenyl)-4-(tert-butyl)benzamide] | 10.6
Nc1nc(Nc2ccc(N3CCOCC3)cc2)nc(-c2cccc(NC(=O)c3ccc4c(c3)CCCC4)c2CO)n1 [Example 102, N-(3-{4-Amino-6-[(4-morpholinophenyl)amino]-1,3,5-triazin-2-yl}-2-(hydroxymethyl)phe-nyl)-5,6,7,8-tetrahydro-naphthalene-2-carbox-amide] | 8.7
CC(C)(C)OC(=O)N1CCN(c2ccc(Nc3nc(N)nc(-c4cccc(NC(=O)c5ccc(C(C)(C)C)cc5)c4CO)n3)cc2)CC1 [Example 104, tert-Butyl 4-{4-[(4-amino-6-{3-[4-(tert-butyl)benzamido]-2-(hydroxymethyl)phenyl}-1,3,5-triazin-2-yl)amino]phenyl} piperazine-1-carboxylate] | 5
CC(=O)OCc1c(NC(=O)c2ccc(C(C)(C)C)cc2)cccc1-c1nc(N)nc(Nc2ccc(O)cc2)n1 [Example 110, 2-{4-Amino-6-[(4-hydroxy-phenyl)amino]-1,3,5-triazin-2-yl}-6-[4-(tert-butyl)benzamido] benzyl acetate] | 17.9
CC(C)(C)c1ccc(C(=O)Nc2cccc(-c3nc(N)nc(Nc4ccc(NS(C)(=O)=O)cc4)n3)c2CO)cc1 [Example 112, N-[3-(4-Amino-6-{[4-(meth-ylsulfonamido)phe-nyl]amino}-1,3,5-tria-zin-2-yl)-2-(hydroxymeth-yl)phenyl]-4-(tert-butyl)benzamide] | 1.1
CC(C)(C)c1ccc(C(=O)Nc2cccc(-c3nc(N)nc(Nc4ccc(O)c(F)c4)n3)c2CO)cc1 [Example 113, N-(3-{4-Amino-6-[(3-fluoro-4-hydroxyphenyl)amino]-1,3,5-triazin-2-yl}-2-(hydroxymeth-yl)phenyl)-4-(tert-butyl)benzamide] | 2.6
CC(C)(C)c1ccc(C(=O)Nc2cccc(-c3nc(N)nc(Nc4ccc(N5CCNC(=O)C5)cc4)n3)c2CO)cc1 [Example 114, N-[3-(4-Amino-6-{[4-(3-oxopiperazin-1-yl)phe-nyl]amino}-1,3,5-tri-azin-2-yl)-2-(hydroxy-methyl)phenyl]-4-(tert-butyl)benzamide] | 1
CC(C)(C)c1ccc(C(=O)Nc2cccc(-c3ncnc(Nc4ccc(C(=O)N5CCOCC5)cc4)n3)c2CO)cc1 [Example 115, 4-(tert-Butyl)-N-[2-(hy-droxymethyl)-3-(4-{[4-(morpholine-4-carbo-nyl)phenyl]amino}-1,3,5-triazin-2-yl)phe-nyl]benzamide] | 9.4
CC(C)(C)OC(=O)Nc1ccc(Nc2nc(N)nc(-c3cccc(NC(=O)c4ccc(C(C)(C)C)cc4)c3CO)n2)cc1 [Example 120, tert-Butyl {4-[(4-amino-6-{3-[4-(tert-butyl)benzamido]-2-(hydroxymethyl)phe-nyl}-1,3,5-triazin-2-yl)amino]phenyl}carbamate] | 5.5
CC(C)(C)c1ccc(C(=O)Nc2cccc(-c3nc(N)nc(Nc4cccc(O)c4)n3)c2CO)cc1 [Example 121, N-(3-{4-Amino-6-[(3-hy-droxyphenyl)amino]-1,3,5-triazin-2-yl}-2-(hydroxymethyl)phenyl)-4-(tert-butyl)benza-mide] | 1.2
Cc1cc(Nc2nc(N)nc(-c3cccc(NC(=O)c4ccc(C(C)(C)C)cc4)c3CO)n2)cc(C)c1O [Example 123, N-(3-{4-Amino-6-[(4-hy-droxy-3,5-dimethyl-phenyl)amino]-1,3,5-tri-azin-2-yl}-2-(hydroxy-methyl)phenyl)-4-(tert-butyl)benzamide] | 1.4

Further lines, results first:

IC50 [nM] | SMILES
0.6 | CN1CCN(C)C(c2ccc(Nc3nc(N)nc(-c4cccc(NC(=O)c5ccc(C(C)(C)C)cc5)c4CO)n3)cc2)C1=O (stereo not drawn) [Example 89, N-[3-(4-Amino-6-{[4-(1,4-dimethyl-3-oxo-piperazin-2-yl)phenyl]ami-no}-1,3,5-triazin-2-yl)-2-(hydroxymethyl)phenyl]-4-(tert-butyl) benzamide]
0.7 | COCCOc1ccc(Nc2nc(N)nc(-c3cccc(NC(=O)c4ccc(C(C)(C)C)cc4)c3CO)n2)cc1OCCOC [Example 90, N-[3-(4-Amino-6-{[3,4-bis(2-methoxyethoxy)phenyl]amino}-1,3,5-tri-azin-2-yl)-2-(hydroxy-methyl)phenyl]-4-(tert-butyl)benzamide]
0.9 | Cc1c(NC(=O)c2ccc(C(C)(C)C)cc2)cccc1-c1nc(N)nc(Nc2ccc(N3CCOC(CO)C3)cc2)n1 (stereo not drawn) [Example 92, N-{3-[4-Amino-6-({4-[2-(hydroxymethyl)morpho-lin]phenyl}amino)-1,3,5-triazin-2-yl]-2-methylphenyl}-4-(tert-butyl)benzamide]
0.4 | CC(C)(C)c1ccc(C(=O)Nc2cccc(-c3nc(N)nc(Nc4ccc(CN5CCC(O)CC5)cc4)n3)c2CO)cc1 [Example 94, N-{3-[4-Amino-6-({4-[(4-hydroxypiperidin-1-yl)methyl]phenyl}ami-no)-1,3,5-triazin-2-yl]-2-(hydroxymethyl)phe-nyl}-4-(tert-butyl) benzamide]
0.9 | COCCN(CCOC)Cc1ccc(Nc2nc(N)nc(-c3cccc(NC(=O)c4ccc(C(C)(C)C)cc4)c3CO)n2)cc1 [Example 105, N-(3-{4-Amino-6-[(4-{[bis (2-methoxyethyl)ami-no]methyl}phenyl)ami-no)-1,3,5-triazin-2-yl]-2-(hydroxymethyl)phenyl}-4-(tert-butyl) benzamide]
0.7 | CC(C)(C)c1ccc(C(=O)Nc2cccc(-c3nc(N)nc(Nc4ccc(N5CCOC(CO)C5)cc4)n3)c2CO)cc1 (stereo not drawn) [Example 106, N-{3-[4-Amino--({4-[2-(hydroxymethyl)morpho-lino]phenyl}amino)-1,3,5-triazin-2-yl]-2-(hydroxymethyl)phenyl}-4-(tert-butyl)benzamide]
0.8 | CC(C)(C)c1ccc(C(=O)Nc2cccc(-c3nc(N)nc(Nc4ccc(N5CCC(O)CC5)cc4)n3)c2CO)cc1 [Example 107, N-[3-(4-Amino-6-{[4-(4-hydroxypiperidin-1-yl)phenyl]amino}-1,3,5-triazin-2-yl)-2-(hy-droxymethyl)phenyl]-4-(tert-butyl)benzamide]
1 | CC(C)(C)c1ccc(C(=O)Nc2cccc(-c3nc(N)nc(Nc4ccc(CO)cc4)n3)c2CO)cc1 [Example 111, N-[3-(4-Amino-6-{[4-(hydroxymethyl)phenyl]amino}-1,3,5-triazin-2-yl)-2-(hydroxymeth-yl)phenyl]-4-(tert-butyl) benzamide]
0.9 | Cc1cc(Nc2nc(N)nc(-c3cccc(NC(=O)c4ccc(C(C)(C)C)cc4)c3CO)n2)ccc1O [Example 117, N-(3-{4-Amino-6-[(4-hy-droxy-3-methylphenyl)amino]-1,3,5-triazin-2-yl)-2-(hydroxymeth-yl)phenyl)-4-(tert-butyl)benzamide]
0.8 | CC(C)(C)c1ccc(C(=O)Nc2cccc(-c3nc(N)nc(Nc4ccc(S(N)(=O)=O)cc4)n3)c2CO)cc1 [Example 118, N-(3-{4-Amino-6-[(4-sulfa-moylphenyl)amino]-1,3,5-triazin-2-yl}-2-(hydroxymethyl)phe-nyl)-4-(tert-butyl)benz-amide]
0.8 | CC(=O)Nc1ccc(Nc2nc(N)nc(-c3cccc(NC(=O)c4ccc(C(C)(C)C)cc4)c3CO)n2)cc1 [Example 119, N-(3-{4-[(4-Acetamido-phenyl)amino]-6-amino-1,3,5-triazin-2-yl}-2-(hydroxymethyl)phe-nyl)-4-(tert-butyl)benz-amide]
0.8 | CC(C)(C)c1ccc(C(=O)Nc2cccc(-c3nc(N)nc(Nc4cccc(CO)c4)n3)c2CO)cc1 [Example 122, N-[3-(4-Amino-6-{[3-(hy-droxymethyl)phenyl]amino}-1,3,5-triazin-2-yl)-2-(hydroxymethyl)phenyl]-4-(tert-butyl)benzamide]
0.5 | CC(C)(C)c1ccc(C(=O)Nc2cccc(-c3nc(N)nc(Nc4ccc(N5CCS(=O)(=O)CC5)cc4)n3)c2CO)cc1 [Example 124, N-[3-(4-Amino-6-{[4-(1,1-dioxidothiomorpho-lino)phenyl]amino}-1,3,5-triazin-2-yl)-2-(hy-droxymethyl)phenyl]-4-(tert-butyl)benzamide]
